Values of other authors, collected in patent US5756661A, “Pentaclethra macroloba derived substances having insecticide, agglutination and aminopeptidase inhibition activity” (Pioneer Hi-Bred International, Inc., priority 1996, dated 1998).

Tested on: aminopeptidases
Settings: references 13, 1

| Structure (SMILES) | inhibition of the activity of several aminopeptidases |
| --- | --- |
| CC(C)C[C@@H](N)[C@H](O)C(=O)N[C@H](C(=O)N[C@H](C(=O)N[C@@H](CC(=O)O)C(=O)O)C(C)C)C(C)C [amastatin] | completely inhibit |
| CC(C)C[C@H](NC(=O)[C@@H](O)[C@H](N)Cc1ccccc1)C(=O)O [bestatin] | completely inhibit |
